Drawing on US20180028667A1, “AQUEOUS LIQUID AGENT” (SENJU PHARMACEUTICAL CO., LTD., priority 2014, published 2018), this text covers solubility for one compound.

The data set is described as follows: Measurement of solubility of compound A in various solvents (oil components). The class given is physicochemical. The settings on record: 25° C., stirred 24 hr. As to the method:
An excess amount (about 0.2 g) of compound A was added to various solvents (10 g) described in Table 7, and the mixture was stirred at 25° C. for 24 hr. Thereafter, the solvent was filtered off through a 0.45 μm non-aqueous filter while maintaining the temperature. The content of compound A contained in the filtrate was measured in the same manner as in Experimental Example 1, and the solubility of compound A in various solvents was calculated.

Each structure is given as a SMILES string.

`Cc1cc(C(=O)Nc2cc(Oc3ccc4nc(NC(=O)C5CC5)cn4n3)ccc2C)n(C)n1` [compound A, N-[5-({2-[(cyclopropylcarbonyl)amino]imidazo[1,2-b]pyridazin-6-yl}oxy)-2-methylphenyl]-1,3-dimethyl-1H-pyrazole-5-carboxamide]: the solubility was 0.311% (solvent castor oil); 0.008% (solvent corn oil); 0.008% (solvent cottonseed oil); 0.009% (solvent olive oil); 0.007% (solvent rape seed oil); 0.007% (solvent soybean oil).
